Experimental data from patent US11524966B1 (Valo Early Discovery, Inc., priority 2017, dated 2022).

Each compound was assayed against T1, USP28 (His-tagged USP28-FL-mammalian) (Homo sapiens, UniProt Q96RU2) (assay: Ubiquitin-Rhodamine 110 Assay for USP28 Activity, Example A-1(a)). Conditions: Ubiquitin-Rhodamine 110 assay, Example A-1(a); read-out: USP28 A-1(a) IC50 range.
T1 construct: Expression of USP28 (1-1077)-TEV-6*His (pTT5 vector); made in house; host or cells: Expi293f cells (pTT5 vector)
T1 sequence (Q96RU2 1-1077): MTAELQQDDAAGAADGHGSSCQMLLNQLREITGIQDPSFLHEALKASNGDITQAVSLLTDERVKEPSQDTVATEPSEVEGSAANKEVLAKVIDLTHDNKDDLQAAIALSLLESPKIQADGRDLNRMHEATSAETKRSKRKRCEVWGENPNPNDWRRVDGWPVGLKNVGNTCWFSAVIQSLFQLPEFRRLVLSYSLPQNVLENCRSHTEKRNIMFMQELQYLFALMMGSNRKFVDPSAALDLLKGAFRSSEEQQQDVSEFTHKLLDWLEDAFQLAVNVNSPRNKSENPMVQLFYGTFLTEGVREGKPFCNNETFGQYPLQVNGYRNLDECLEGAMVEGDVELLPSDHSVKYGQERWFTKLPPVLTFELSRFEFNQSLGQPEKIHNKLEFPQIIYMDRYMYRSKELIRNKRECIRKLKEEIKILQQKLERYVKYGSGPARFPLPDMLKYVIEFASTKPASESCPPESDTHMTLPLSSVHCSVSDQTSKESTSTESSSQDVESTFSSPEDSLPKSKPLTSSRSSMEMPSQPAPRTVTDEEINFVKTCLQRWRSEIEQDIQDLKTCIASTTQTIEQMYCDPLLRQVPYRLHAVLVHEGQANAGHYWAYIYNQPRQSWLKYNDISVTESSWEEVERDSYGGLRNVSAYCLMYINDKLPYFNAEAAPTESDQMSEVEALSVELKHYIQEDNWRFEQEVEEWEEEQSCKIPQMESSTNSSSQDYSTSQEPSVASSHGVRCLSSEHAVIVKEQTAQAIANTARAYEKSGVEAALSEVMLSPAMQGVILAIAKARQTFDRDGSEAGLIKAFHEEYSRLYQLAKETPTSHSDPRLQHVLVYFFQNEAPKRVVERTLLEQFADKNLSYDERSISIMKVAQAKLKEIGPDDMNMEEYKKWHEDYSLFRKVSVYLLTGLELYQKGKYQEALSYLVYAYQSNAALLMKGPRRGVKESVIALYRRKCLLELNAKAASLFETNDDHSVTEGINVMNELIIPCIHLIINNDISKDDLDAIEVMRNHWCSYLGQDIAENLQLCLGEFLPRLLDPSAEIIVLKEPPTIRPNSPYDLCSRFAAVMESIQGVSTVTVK
Type: biochemical
Method in brief: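 IC50 from 4-parameter logistic fit of percent inhibition versus no-enzyme and DMSO controls; compounds 25 μM to 1.3 nM, 3-fold. Ub-Rh110 cleavage (25 nM, below Km) by […] mammalian-expressed USP28-FL-His ran 45 min at room temperature, stopped with 10 mM citric acid, read ex 485/em 535.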

Row | Compound | IC50 [nM]
1 | Cc1ccc2c(N)c(C(=O)N[C@H]3CCc4nc(N5C[C@@H]6NCCC(F)(F)[C@@H]6C5)ccc4C3)sc2n1 [Example 330, N-[(6S)-2-[(4aR,7aR)-4,4-difluoro-octahydro-1H-pyrrolo[3,4-b]pyridin-6-yl]-5,6,7,8-tetrahydroquinolin-6-yl]-3-amino-6-methylthieno[2,3-b]pyridine-2-carboxamide] | 50 to 200
2 | CN[C@H]1CN(c2ccc3c(n2)CC[C@H](NC(=O)c2sc4nc(C)ccc4c2N)C3)C[C@@]1(C)O [Example 331, 3-amino-N-[(6S)-2-[(3R,4S)-3-hydroxy-3-methyl-4-(methylamino)pyrrolidin-1-yl]-5,6,7,8-tetrahydroquinolin-6-yl]-6-methylthieno[2,3-b]pyridine-2-carboxamide] | 50 to 200
3 | CN[C@@H]1CN(c2ccc3c(n2)CC[C@H](NC(=O)c2sc4nc(C)ccc4c2N)C3)C[C@]1(C)O [Example 332, 3-amino-N-[(6S)-2-[(3S,4R)-3-hydroxy-3-methyl-4-(methylamino)pyrrolidin-1-yl]-5,6,7,8-tetrahydroquinolin-6-yl]-6-methylthieno[2,3-b]pyridine-2-carboxamide] | 50 to 200
4 | CO[C@H]1CN(c2ccc3c(c2)OC[C@H](NC(=O)c2sc4nc(C)ccc4c2N)C3)[C@@H](C)[C@@H]1N [Example 333, 3-amino-N-[(3R)-7-[(2S,3S,4S)-3-amino-4-methoxy-2-methylpyrrolidin-1-yl]-3,4-dihydro-2H-1-benzopyran-3-yl]-6-methylthieno[2,3-b]pyridine-2-carboxamide] | 1 to 50
5 | CO[C@H]1[C@H](N)CN(c2ccc3c(c2)OC[C@H](NC(=O)c2sc4nc(C)ccc4c2N)C3)[C@H]1C [Example 334, 3-amino-N-[(3R)-7-[(2S,3S,4R)-4-amino-3-methoxy-2-methylpyrrolidin-1-yl]-3,4-dihydro-2H-1-benzopyran-3-yl]-6-methylthieno[2,3-b]pyridine-2-carboxamide] | 1 to 50
6 | CO[C@@H]1CN(c2ccc3c(c2)OC[C@H](NC(=O)c2sc4nc(C)ccc4c2N)C3)[C@H](C)[C@H]1N [Example 335, 3-amino-N-[(3R)-7-[(2R,3R,4R)-3-amino-4-methoxy-2-methylpyrrolidin-1-yl]-3,4-dihydro-2H-1-benzopyran-3-yl]-6-methylthieno[2,3-b]pyridine-2-carboxamide] | 1 to 50
7 | CO[C@H]1[C@@H](C)N(c2ccc3c(c2)OC[C@H](NC(=O)c2sc4nc(C)ccc4c2N)C3)C[C@@H]1N [Example 336, 3-amino-N-[(3R)-7-[(2R,3R,4S)-4-amino-3-methoxy-2-methylpyrrolidin-1-yl]-3,4-dihydro-2H-1-benzopyran-3-yl]-6-methylthieno[2,3-b]pyridine-2-carboxamide] | 1 to 50
8 | Cc1ccc2c(N)c(C(=O)N[C@H]3COc4cc(N5CC6(C5)OCC[C@H]6N)ccc4C3)sc2n1 [Example 337, 3-amino-N-[(3R)-7-[(8R)-8-amino-5-oxa-2-azaspiro[3.4]octan-2-yl]-3,4-dihydro-2H-1-benzopyran-3-yl]-6-methylthieno[2,3-b]pyridine-2-carboxamide] | 1 to 50
9 | Cc1ccc2c(N)c(C(=O)N[C@H]3COc4cc(N5CC6(C5)OCC[C@@H]6N)ccc4C3)sc2n1 [Example 338, 3-amino-N-[(3R)-7-[(8S)-8-amino-5-oxa-2-azaspiro[3.4]octan-2-yl]-3,4-dihydro-2H-1-benzopyran-3-yl]-6-methylthieno[2,3-b]pyridine-2-carboxamide] | 50 to 200
10 | Cc1ccc2c(N)c(C(=O)N[C@H]3COc4cc(N5C[C@@H](N)[C@@]6(CCO6)C5)ccc4C3)sc2n1 [Example 339, 3-amino-N-[(3R)-7-[(4R,8R)-8-amino-1-oxa-6-azaspiro[3.4]octan-6-yl]-3,4-dihydro-2H-1-benzopyran-3-yl]-6-methylthieno[2,3-b]pyridine-2-carboxamide] | 1 to 50
11 | Cc1ccc2c(N)c(C(=O)N[C@H]3COc4cc(N5C[C@H](N)[C@]6(CCO6)C5)ccc4C3)sc2n1 [Example 340, 3-amino-N-[(3R)-7-[(4S,8S)-8-amino-1-oxa-6-azaspiro[3.4]octan-6-yl]-3,4-dihydro-2H-1-benzopyran-3-yl]-6-methylthieno[2,3-b]pyridine-2-carboxamide] | 1 to 50
12 | COC[C@@]1(C)CN(c2ccc3c(n2)CC[C@H](NC(=O)c2sc4nc(C)ccc4c2N)C3)C[C@@H]1N [Example 341, 3-amino-N-[(6S)-2-[(3S,4R)-4-amino-3-(methoxymethyl)-3-methylpyrrolidin-1-yl]-5,6,7,8-tetrahydroquinolin-6-yl]-6-methylthieno[2,3-b]pyridine-2-carboxamide] | 50 to 200
13 | COC[C@]1(C)CN(c2ccc3c(n2)CC[C@H](NC(=O)c2sc4nc(C)ccc4c2N)C3)C[C@@H]1N [Example 342, 3-amino-N-[(6S)-2-[(3R,4R)-4-amino-3-(methoxymethyl)-3-methylpyrrolidin-1-yl]-5,6,7,8-tetrahydroquinolin-6-yl]-6-methylthieno[2,3-b]pyridine-2-carboxamide] | 50 to 200
14 | COC[C@]1(C)CN(c2ccc3c(n2)CC[C@H](NC(=O)c2sc4nc(C)ccc4c2N)C3)C[C@H]1N [Example 344, 3-amino-N-[(6S)-2-[(3R,4S)-4-amino-3-(methoxymethyl)-3-methylpyrrolidin-1-yl]-5,6,7,8-tetrahydroquinolin-6-yl]-6-methylthieno[2,3-b]pyridine-2-carboxamide] | 50 to 200
